In US20050182105A1 (priority 2004, published 2005):
pKd: −log10 of the molar value.

What was measured:
glucocorticoid receptor = glucocorticoid receptor (Homo sapiens, UniProt P04150); test: cell-based; settings: A549, read-out: % inhibition of the reporter system as compared to the buffer control with 10 ng/mL PMA alone
Protocol: The AP-1 assay is a cell-based luciferase reporter assay. A549 cells, which contain endogenous glucocorticoid receptor, were stably transfected with an AP-1 DNA binding site attached to the luciferase gene. Cells are then grown in RPMI+10% fetal calf serum (charcoal-treated)+Penicillin/Streptomycin with 0.5 mg/mL geneticin. Cells are plated the day before the assay at approximately 40000 cells/well. On assay day, the media is removed by aspiration and 20 μL assay buffer (RPMI without phenol red+10% FCS (charcoal-treated)+Pen/Strep) is added to each well. At this point either 20 μL assay buffer (control experiments), the compounds of the present invention (“test compounds”) (dissolved in DMSO and added at varying concentrations) or dexamethasome (100 nM in DMSO, positive control) are added to each well. The plates are then pre-incubated for 15 min at 37° C., followed by stimulation of the cells with 10 ng/mL PMA. The plates are then incubated for 7 h at 37° C. after which 40 μL luciferase substrate reagent is added to each well. Activity is measured by analysis in a luminometer as compared to control experiments treated with buffer or dexamethasome.

[1] = system: wild type AR (MDA 453 cells); settings: read-out: Kd for [3H]-DHT, Scatchard analysis, 4 h at 37° C.
Protocol: For the whole-cell binding assay, human LNCaP cells (T877A mutant AR) or MDA 453 (wild type AR) in 96-well microtiter plates containing RPMI 1640 or DMEM supplemented with 10% charcoal stripped CA-FBS (Cocaleco Biologicals) respectively, were incubated at 37° C. to remove any endogenous ligand that might be complexed with the receptor in the cells.
For the saturation analysis, the difference between the total binding and the non-specific binding, was defined as specific binding. […] See e.g. D. Rodbard, Mathematics and statistics of ligand assays: an illustrated guide: In: J. Langon and J. J. Clapp, eds., Ligand Assay, Masson Publishing U.S.A., Inc., New York, pp. 45-99, (1981), the disclosure of which is herein incorporated by reference.
Two replicates were used for each sample. […] After correcting for non-specific binding, IC50 values were determined. […] C2C12 Mouse Myoblast Transactivation Assay

AR = target: T1, AR (Rattus norvegicus, UniProt P15207)
T1 sequence (P15207 1-902): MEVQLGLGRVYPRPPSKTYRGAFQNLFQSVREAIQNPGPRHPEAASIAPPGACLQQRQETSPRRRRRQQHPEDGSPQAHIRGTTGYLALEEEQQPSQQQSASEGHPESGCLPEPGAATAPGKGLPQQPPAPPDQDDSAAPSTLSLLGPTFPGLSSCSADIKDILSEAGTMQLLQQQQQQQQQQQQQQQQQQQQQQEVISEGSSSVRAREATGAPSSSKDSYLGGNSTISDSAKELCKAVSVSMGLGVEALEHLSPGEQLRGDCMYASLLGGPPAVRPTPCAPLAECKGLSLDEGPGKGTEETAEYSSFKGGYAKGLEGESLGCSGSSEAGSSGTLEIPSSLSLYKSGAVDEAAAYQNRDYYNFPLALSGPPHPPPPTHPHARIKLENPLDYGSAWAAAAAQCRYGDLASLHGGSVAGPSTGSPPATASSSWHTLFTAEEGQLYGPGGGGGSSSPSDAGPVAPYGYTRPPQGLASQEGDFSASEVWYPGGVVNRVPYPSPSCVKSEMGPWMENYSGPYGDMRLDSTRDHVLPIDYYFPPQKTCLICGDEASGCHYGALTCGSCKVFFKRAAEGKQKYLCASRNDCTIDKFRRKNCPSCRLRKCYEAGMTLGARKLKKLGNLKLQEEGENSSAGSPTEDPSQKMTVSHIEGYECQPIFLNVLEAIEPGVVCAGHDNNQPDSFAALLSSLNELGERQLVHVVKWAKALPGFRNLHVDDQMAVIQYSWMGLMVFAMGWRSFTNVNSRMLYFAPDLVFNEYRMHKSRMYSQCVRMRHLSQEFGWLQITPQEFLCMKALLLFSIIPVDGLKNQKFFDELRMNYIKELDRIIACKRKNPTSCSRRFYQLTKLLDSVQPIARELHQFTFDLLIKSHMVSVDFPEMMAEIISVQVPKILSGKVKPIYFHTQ
Description: Biol. Med., 83, 175 (1953); B. L. Beyler et al, “Methods for evaluating anabolic and catabolic agents in laboratory animals”, J. Amer. Med. Women's Ass., 23, 708 (1968); H. Fukuda et al., “Investigations of the levator ani muscle as an anabolic steroid assay”, Nago Dai. Yak. Ken. Nem. 14, 84 (1966) the disclosures of which are herein incorporated by reference.
The basis of this assay lies in the well-defined action of androgenic agents on the maintenance and growth of muscle tissues and sexual accessory organs in animals and man. […] J. Anat. […] Ital. Biol. Sper. […] II. […] Ital. Biol. Sper. 42, 1600 (1966); A. Boris et al., Steroids 15, 61 (1970). As described above, the effects of androgens on maintenance of male sexual accessory organs, such as the prostate and seminal vesicles, is well described. Castration results in rapid involution and atrophy of the prostate and seminal vesicles. This effect can be reversed by exogenous addition of androgens. Since both the levator ani muscle and the male sex organs are the tissues most responsive to the effects of androgenic agents, this model is used to determine the androgen dependent reversal of atrophy in the levator ani muscle and the sex accessory organs in immature castrated rats. Sexually mature rats (200-250 g, 6-8 weeks-old, Sprague-Dawley, Harlan) were acquired castrated from the vendor […]. […]

Sequence of glucocorticoid receptor (P04150 whole entry): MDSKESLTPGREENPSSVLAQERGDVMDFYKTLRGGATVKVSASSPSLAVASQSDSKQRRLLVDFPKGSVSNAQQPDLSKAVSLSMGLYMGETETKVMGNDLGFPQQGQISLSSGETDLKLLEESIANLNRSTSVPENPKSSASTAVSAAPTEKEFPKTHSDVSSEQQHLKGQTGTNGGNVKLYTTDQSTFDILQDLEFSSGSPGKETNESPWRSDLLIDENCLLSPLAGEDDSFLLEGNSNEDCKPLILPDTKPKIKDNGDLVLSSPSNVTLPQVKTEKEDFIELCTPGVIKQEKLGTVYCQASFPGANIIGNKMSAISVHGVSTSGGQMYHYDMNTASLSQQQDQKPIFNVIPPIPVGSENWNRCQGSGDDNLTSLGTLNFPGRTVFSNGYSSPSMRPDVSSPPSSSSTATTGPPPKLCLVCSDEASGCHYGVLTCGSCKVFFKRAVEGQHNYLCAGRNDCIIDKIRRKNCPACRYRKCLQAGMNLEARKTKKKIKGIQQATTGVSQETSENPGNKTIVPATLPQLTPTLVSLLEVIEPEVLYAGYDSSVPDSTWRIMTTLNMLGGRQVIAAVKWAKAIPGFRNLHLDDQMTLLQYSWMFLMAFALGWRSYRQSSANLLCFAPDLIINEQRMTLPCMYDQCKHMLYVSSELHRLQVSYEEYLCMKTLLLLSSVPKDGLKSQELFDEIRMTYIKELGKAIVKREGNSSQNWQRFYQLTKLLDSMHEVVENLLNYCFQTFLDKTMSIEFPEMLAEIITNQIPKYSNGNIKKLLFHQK

C[C@@H]1C[C@H]2[C@@H]3CCC4=CC(=O)C=C[C@]4(C)[C@@]3(F)[C@@H](O)C[C@]2(C)[C@@]1(O)C(=O)CO [dexamethasone]
inhibition at 10 µM (glucocorticoid receptor): 65%

tritiated dihydrotestosterone [[^3H]-DHT]
pKd [1]: 9.15

CCC(=O)O[C@H]1CC[C@H]2[C@@H]3CCC4=CC(=O)CC[C@]4(C)[C@H]3CC[C@]12C [TP, testosterone propionate]
EC50 (increase in organ weight) (AR; castrated rats, organ weight): ~0.03 mg | potency relative to free T (AR; higher potency than free T): 10-30 fold
